In US8546382B2, “Methods for enhancing hematopoietic progenitor cell engraftment” (Children's Medical Center Corporation, priority 2009, dated 2013):
Entries after “also recorded” stand apart in the source; their conditions may differ.

Assays:
Wildtype BM = assay: Colony forming unit (CFU) assay of wildtype BM plated with BADGE in vitro; assay type: cell-based, mouse; conditions: BADGE 30 mg/kg vs DMSO vehicle control (0.5 μL/mL); after 8-10 days
Method: 14a. Wildtype BM was plated in the presence of BADGE 30 mg/kg, or DMSO vehicle control (0.5 μL/mL).
Colony forming unit (CFU) assays were performed in complete M3434 methylcellulose (Stem Cell Technologies) following the manufacturer's instructions. Colonies were scored on day 8-10 on coded plates for unbiased counts.

[1] = tested on: wild-type female FVB mice; assay: BM transplantation in lethally irradiated wild-type mice with daily BADGE; assay type: in vivo, mouse
Method: BM transplants were performed in wild-type female FVB mice as described for FIG. 2 except that 30 mg/kg BADGE or control vehicle (DMSO 10%) were administered through daily intra-peritoneal injections from the day prior to irradiation until day 14 post-transplant. 4a. […] 4b. Colony forming unit assay (CFU) from the recovered donor BM.
Finally, it was tested whether pharmacologic antagonism of adipogenesis could enhance bone marrow engraftment in wild-type mice.
Thorax, tibias and tails for homeostasis studies were isolated from wildtype C57BL6/J mice. When BM transplantation was performed, B6.SJL-Ptprca Pep3b/BoyJ were used as donors to take advantage of the CD45.1/CD45.2 allelic system (Jackson Laboratories #0002014). Bone marrow transplantation and CFU-Spleen assays were performed on lethally irradiated mice (two 5.5Gy doses separated by 3 hrs) and cells were administered by tail vein injection within 24 hrs of lethal irradiation. For competitive transplantation, samples were competed against 250,000 recipient-matched competitor femoral bone marrow. FVB wildtype litter-mates mice were used as controls for FVB.A-ZIP/F1 fatless mice. During BM transplantation assays FVB or FVB.A-ZIP/F1 mice (CD45.1) received 200,000 MHC-matched (H^q) wildtype BM from DBA/1J mice (CD45.2). Secondary transplants were performed through recovery of the CD45.2 […] BM passed through the FVB wildtype or FVB.A-ZIP/F1 microenvironment, which was then transplanted into FVB (CD45.1) recipients together with 250,000 FVB (CD45.1) wildtype competitor BM cells. For pharmacological inhibition of adipocyte formation, BM transplants were performed in wild-type female FVB mice as described above, except that 30 mg/kg BADGE or control vehicle (DMSO 10%) were administered in daily intraperitoneal injections starting one day prior to irradiation and continuing until day 14 post-transplant. Solutions were made such that 500 mg BADGE (Fluka) was resuspended in 8.3 ml DMSO (Sigma) and diluted in PBS to a final concentration of 10% DMSO for administration at 30 mg/kg in 100 ul. Aliquots were stored at −20° C. and thawed daily. Multicolor flow cytometry was performed in a special order BD five-laser LSRII flow cytometer. Cell cycle analysis was performed with DAPI (Sigma) in cells fixed in 2% paraformaldehyde for 15 min at 4° C. For all statistical analysis an un-paired two-tailed Student's t-test was performed assuming experimental samples of equal variance. […]
Mice were lethally irradiated with 11-12Gy on a split dose separated by 2.5 h and BM transplants were performed within 24 h by tail-vein injection. Engraftment was measured monthly through eye bleed and FACS analysis with CD45.1-FITC (eBiosciences), CD45.2-PE or CD45.2-biotin, CD3-PE, CD19-PE, Mac-1-PE. […]

[2] = tested on: bone marrow adipocyte formation; conditions: in vitro and in vivo in models of streptozotocin-induced diabetes; cited from earlier work
[3] = tested on: whole bone marrow collected from the DBA/1J mouse strain; assay: Hematopoietic colony formation in methylcellulose (M3434) in the presence of PPAR gamma inhibitors; assay type: cell-based; conditions: 3 ml M3434 with 1.5 μL of working concentration of each compound; N=2
Method: Progenitor activity was measured by formation of hematopoietic colonies in methylcellulose (M3434) from whole bone marrow collected from the DBA/1J mouse strain. Cells were plated in 3 ml M3434 along with 1.5 μL of the working concentration of each compound.

patients = patients treated with the PPARγ agonist; cited from earlier work

Which “Ability to form CFUs (hematopoietic colony formation) in vitro” value (Wildtype BM) does the source give for CC(C)(c1ccc(OCC2CO2)cc1)c1ccc(OCC2CO2)cc1 (centres unmarked) [BADGE, Bisphenol-A-DiGlycidyl-Ether] here?
The value was “does not enhance hematopoietic colony formation; also recorded: No difference”.

And the “White blood cell (WBC) / leukocyte counts in peripheral blood in the post-transplant period” value ([1]; 30 mg/kg BADGE daily i.p. from day prior to irradiation until day 14 post-transplant, vs vehicle (DMSO 10%))?
The value was “Higher peripheral blood leukocyte counts; also recorded: accelerated recovery”.

What about the “Colony forming units (CFU) from the recovered donor BM” value ([1]; 30 mg/kg BADGE daily i.p., donor CD45.2 BM recovered day 17 post-transplant) of the same compound?
The value was “enrichment in colony forming units”.

What about the “BM adipocyte formation by H&E staining of femurs” value ([1]; BADGE for two weeks following BM transplantation, mice sacrificed day 17 post-transplant) of the same compound?
Its value is “successful inhibition of BM adipocyte formation”.

And the “Hematopoietic recovery after BM transplant” value ([1]; pharmacologic inhibition of adipocyte formation with BADGE)?
Its value is “enhances hematopoietic recovery”.

What about the “Bone marrow adipocyte formation” value [2] of the same compound?
Its value is “prevent bone marrow adipocyte formation”.

For O=C(Nc1ccncc1)c1cc([N+](=O)[O-])ccc1Cl [T0070907, 2-chloro-5-nitro-N-4-pyridinyl-benzamide], which “Number of hematopoietic colonies relative to vehicle control” value [3] is on record?
The value was “fewer colonies relative to the vehicle control”.

For CN(CCOc1ccc(CC2SC(=O)NC2=O)cc1)c1ccccn1 (centres unmarked) [rosiglitazone], which “Adverse haematological effect in treated patients” value (patients) is on record?
Its value is “myelosuppression”.
